Measurements reported in patent US4520022A, “Substituted vinyl cephalosporins” (priority 1983, dated 1985).
Values after ≈ are worked out from the molar mass of the structure shown. Where two headings read alike, the source gives them in different places. Each block holds one molecule with its values, some of them ahead of it.

Assays:
[1] = in vivo; settings: mouse; for half-life: T1/2
[2] = system: E. coli Juhl; assay: Protective dose, mice infected with lethal inoculum, oral treatment, E. coli Juhl; format: in vivo; settings: Escherichia coli, po, 120 h, read-out: Protective dose (PD50), E. coli Juhl
[3] = system: S. aureus Smith; assay: Protective dose, mice infected with lethal inoculum, oral treatment, S. aureus Smith; format: in vivo; settings: Staphylococcus aureus, po, 120 h, read-out: Protective dose (PD50), S. aureus Smith
[4] = system: Gp Ib: S. aureus 193, BX-1633-2 A9606, A15092, Russell, A9602; settings: Staphylococcus aureus
[5] = system: Gp Ia: S. aureus Smith A9537, A9497, Terajima, A9534, A9601; settings: Staphylococcus aureus, read-out: Minimum Inhibitory Concentration Gp Ia, Mueller-Hinton agar; run 1; average of five organisms
[6] = system: N. meningitidis; assay: In vitro activity against Neisseria (MIC), N. meningitidis; format: cell-based
[7] = system: H. influenzae; assay: In vitro activity against Haemophilis (MIC), H. influenzae; format: cell-based; settings: Haemophilus influenzae, Compound 9 lot 2
[8] = system: S. pyogenes; assay: In vitro activity against Streptococci (MIC), S. pyogenes; format: cell-based; settings: Streptococcus pyogenes, Compound 9 lot 2
[9] = system: N. gonorrheae; assay: In vitro activity against Neisseria (MIC), N. gonorrheae; format: cell-based
[10] = system: S. pneumoniae; assay: In vitro activity against Streptococci (MIC), S. pneumoniae; format: cell-based; settings: Streptococcus pneumoniae, Compound 9 lot 2
[11] = read-out: Minimum Inhibitory Concentration Gp Ib, Mueller-Hinton agar, run 1, average of five organisms
[12] = oral, 50% survival for 5 days, groups of 5 mice

Structure (SMILES): CC/C=C\C1=C(C(=O)[O-])N2C(=O)[C@@H](NC(=O)[C@H](N)c3ccc(O)cc3)[C@H]2SC1.[Na+]
AUC ([1]; im, 20 mg/kg, AUC*, Run 1, * mean of 3 runs): 20000 ng·h/mL
Cmax ([1]; im, 20 mg/kg): 25000 ng/mL
half-life ([1]; im, 20 mg/kg): 0.74 h
AUC ([1]; po, 20 mg/kg, AUC*, Run 1, * mean of 3 runs): 41000 ng·h/mL
Cmax ([1]; po, 20 mg/kg): 13000 ng/mL
half-life ([1]; po, 20 mg/kg): 2 h
AUC ([1]; po, 100 mg/kg, AUC): 150000 ng·h/mL
Cmax ([1]; po, 100 mg/kg): 51000 ng/mL
half-life ([1]; po, 100 mg/kg): 1.9 h
ED50 [2]: 3 mg/kg
ED50 [3]: 0.32 mg/kg
MIC ([4]; read-out: Minimum Inhibitory Concentration Gp Ib): 1.4 µg/mL
MIC [5]: 0.4 µg/mL

AUC ([1]; im, 20 mg/kg, AUC*): 19000 ng·h/mL
Cmax ([1]; im, 20 mg/kg): 24000 ng/mL
half-life ([1]; im, 20 mg/kg): 0.6 h
AUC ([1]; po, 20 mg/kg, AUC*): 28000 ng·h/mL
Cmax ([1]; po, 20 mg/kg): 18000 ng/mL
half-life ([1]; po, 20 mg/kg): 1.6 h
AUC ([1]; po, 100 mg/kg, AUC): 197000 ng·h/mL
Cmax ([1]; po, 100 mg/kg): 73000 ng/mL
half-life ([1]; po, 100 mg/kg): 1.7 h
MIC [4, 11]: 2.1 µg/mL (≈ 5.01 µM)
MIC [5]: 0.53 µg/mL (≈ 1.26 µM)
Structure (SMILES): COC/C=C\C1=C(C(=O)O)N2C(=O)[C@@H](NC(=O)[C@H](N)c3ccc(O)cc3)[C@H]2SC1 [Compound 17, 7β-[D-2-Amino-2-(p-hydroxyphenyl)acetamido]-3-[(Z)-3-methoxy-1-propen-1-yl]-3-cephem-4-carboxylic Acid]

AUC ([1]; im, 20 mg/kg, AUC*): 52000 ng·h/mL
Cmax ([1]; im, 20 mg/kg): 31000 ng/mL
half-life ([1]; im, 20 mg/kg): 0.99 h
AUC ([1]; po, 20 mg/kg, AUC*): 38000 ng·h/mL
Cmax ([1]; po, 20 mg/kg): 12000 ng/mL
half-life ([1]; po, 20 mg/kg): 2.7 h
AUC ([1]; po, 100 mg/kg, AUC): 81000 ng·h/mL
Cmax ([1]; po, 100 mg/kg): 41000 ng/mL
half-life ([1]; po, 100 mg/kg): 2.7 h
MIC ([6]; N. meningitidis A21487, Compound 9 lot 2): > 100 µg/mL
MIC ([6]; N. meningitidis A21496, Compound 9 lot 2): > 100 µg/mL
MIC ([6]; N. meningitidis A21497, Compound 9 lot 2): > 100 µg/mL
MIC ([6]; Neisseria meningitidis, read-out: MIC): > 100 µg/mL
MIC ([6]; Neisseria meningitidis, read-out: MIC, Geometric Mean): > 100 µg/mL
MIC ([7]; H. influenzae A9729, read-out: MIC): > 100 µg/mL
MIC ([7]; H. influenzae A9833, read-out: MIC): > 100 µg/mL
MIC ([7]; H. influenzae A20177, read-out: MIC): > 100 µg/mL
MIC ([7]; H. influenzae A20193, read-out: MIC): > 100 µg/mL
MIC ([7]; H. influenzae A21523, read-out: MIC): > 100 µg/mL
MIC ([7]; H. influenzae A22157, read-out: MIC): 25 µg/mL (≈ 53.7 µM)
MIC ([7]; H. influenzae A22481, read-out: MIC): 25 µg/mL (≈ 53.7 µM)
MIC ([7]; H. influenzae A22482, read-out: MIC): > 100 µg/mL
MIC ([7]; H. influenzae A22483, read-out: MIC): > 100 µg/mL
MIC ([7]; H. influenzae A22491, read-out: MIC): 25 µg/mL (≈ 53.7 µM)
MIC ([7]; H. influenzae, seven strains above, read-out: MIC, Geometric Mean): > 100 µg/mL
MIC [4, 11]: 0.7 µg/mL (≈ 1.5 µM)
MIC ([8]; S. pyogenes A9604, read-out: MIC): 0.2 µg/mL (≈ 0.43 µM)
MIC ([8]; S. pyogenes A15040, read-out: MIC): 0.2 µg/mL (≈ 0.43 µM)
MIC ([8]; S. pyogenes A20065, read-out: MIC): 0.2 µg/mL (≈ 0.43 µM)
MIC ([8]; S. pyogenes A20201, read-out: MIC): 0.2 µg/mL (≈ 0.43 µM)
MIC ([8]; S. pyogenes Dick, read-out: MIC): 0.2 µg/mL (≈ 0.43 µM)
MIC ([8]; S. pyogenes S-23, Dick, A9604, A20065, A15040, read-out: MIC, Geometric Mean): 0.2 µg/mL (≈ 0.43 µM)
MIC ([8]; S. pyogenes S-23, read-out: MIC): 0.2 µg/mL (≈ 0.43 µM)
MIC ([9]; N. gonorrheae A20142, Compound 9 lot 2): > 100 µg/mL
MIC ([9]; N. gonorrheae A20143, Compound 9 lot 2): > 100 µg/mL
MIC ([9]; N. gonorrheae A20154, Compound 9 lot 2): > 100 µg/mL
MIC ([9]; N. gonorrheae A20155, Compound 9 lot 2): > 100 µg/mL
MIC ([9]; read-out: MIC): > 100 µg/mL
MIC ([9]; read-out: MIC, Geometric Mean): > 100 µg/mL
MIC ([10]; S. pneumoniae A9585, read-out: MIC): 0.4 µg/mL (≈ 0.859 µM)
MIC ([10]; S. pneumoniae A15069, read-out: MIC): 0.2 µg/mL (≈ 0.43 µM)
MIC ([10]; S. pneumoniae A20759, read-out: MIC): 0.4 µg/mL (≈ 0.859 µM)
MIC ([10]; S. pneumoniae Type I, read-out: MIC): 0.2 µg/mL (≈ 0.43 µM)
MIC ([10]; S. pneumoniae Type II, I, III, A9585, A15069, read-out: MIC, Geometric Mean): 0.23 µg/mL (≈ 0.494 µM)
MIC ([10]; S. pneumoniae Type II, read-out: MIC): 0.2 µg/mL (≈ 0.43 µM)
MIC ([10]; S. pneumoniae Type III, read-out: MIC): 0.2 µg/mL (≈ 0.43 µM)
MIC [5]: 0.2 µg/mL (≈ 0.43 µM)
Structure (SMILES): N[C@@H](C(=O)N[C@@H]1C(=O)N2C(C(=O)O)=C(/C=C\Cc3ccccc3)CS[C@H]12)c1ccc(O)cc1 [Compound 15, 7β-[D-2-Amino-2-(p-hydroxyphenyl)acetamido]-3-[(Z)-3-phenyl-1-propen-1-yl]-3-cephem-4-carboxylic acid]

Structure (SMILES): C/C=C/C1=C(C(=O)O)N2C(=O)[C@@H](NC(=O)[C@H](N)c3ccc(O)cc3)[C@H]2SC1 [Compound 8, 7β-[D-2-Amino-2-(p-hydroxyphenyl)acetamido]-3-[(E)-1-propen-1-yl]-3-cephem-4-carboxylic Acid]
AUC ([1]; im, 20 mg/kg, AUC*): 31000 ng·h/mL
Cmax ([1]; im, 20 mg/kg): 31000 ng/mL
half-life ([1]; im, 20 mg/kg): 0.63 h
AUC ([1]; po, 20 mg/kg, AUC*): 22000 ng·h/mL
Cmax ([1]; po, 20 mg/kg): 10000 ng/mL
half-life ([1]; po, 20 mg/kg): 1.3 h
AUC ([1]; po, 100 mg/kg, AUC): 69000 ng·h/mL
Cmax ([1]; po, 100 mg/kg): 30000 ng/mL
half-life ([1]; po, 100 mg/kg): 1.4 h
ED50 [2, 12]: 7.5 mg/kg
ED50 [3, 12]: 0.2 mg/kg
MIC [4, 11]: 1.4 µg/mL (≈ 3.59 µM)
MIC [5]: 0.26 µg/mL (≈ 0.668 µM)
